Test results: paper PMC6437697 (Journal of Medicinal Chemistry, 2019)
Converted amounts (≈) assume the structure as drawn.

Assays:
DYRK1A = molecular target: T1, DYRK1A (Homo sapiens, UniProt Q13627); test: KINOMEscan; assay type: binding; settings: read-out: % control activity remaining
T1 construct: purchased Eurofins DiscoverX KINOMEscan

EPHA4 = molecular target: T2, EPHA4 (Homo sapiens, UniProt P54764); test: KINOMEscan; assay type: binding; settings: read-out: % control activity remaining
T2 construct: purchased Eurofins DiscoverX KINOMEscan
T2 sequence (P54764 20-986): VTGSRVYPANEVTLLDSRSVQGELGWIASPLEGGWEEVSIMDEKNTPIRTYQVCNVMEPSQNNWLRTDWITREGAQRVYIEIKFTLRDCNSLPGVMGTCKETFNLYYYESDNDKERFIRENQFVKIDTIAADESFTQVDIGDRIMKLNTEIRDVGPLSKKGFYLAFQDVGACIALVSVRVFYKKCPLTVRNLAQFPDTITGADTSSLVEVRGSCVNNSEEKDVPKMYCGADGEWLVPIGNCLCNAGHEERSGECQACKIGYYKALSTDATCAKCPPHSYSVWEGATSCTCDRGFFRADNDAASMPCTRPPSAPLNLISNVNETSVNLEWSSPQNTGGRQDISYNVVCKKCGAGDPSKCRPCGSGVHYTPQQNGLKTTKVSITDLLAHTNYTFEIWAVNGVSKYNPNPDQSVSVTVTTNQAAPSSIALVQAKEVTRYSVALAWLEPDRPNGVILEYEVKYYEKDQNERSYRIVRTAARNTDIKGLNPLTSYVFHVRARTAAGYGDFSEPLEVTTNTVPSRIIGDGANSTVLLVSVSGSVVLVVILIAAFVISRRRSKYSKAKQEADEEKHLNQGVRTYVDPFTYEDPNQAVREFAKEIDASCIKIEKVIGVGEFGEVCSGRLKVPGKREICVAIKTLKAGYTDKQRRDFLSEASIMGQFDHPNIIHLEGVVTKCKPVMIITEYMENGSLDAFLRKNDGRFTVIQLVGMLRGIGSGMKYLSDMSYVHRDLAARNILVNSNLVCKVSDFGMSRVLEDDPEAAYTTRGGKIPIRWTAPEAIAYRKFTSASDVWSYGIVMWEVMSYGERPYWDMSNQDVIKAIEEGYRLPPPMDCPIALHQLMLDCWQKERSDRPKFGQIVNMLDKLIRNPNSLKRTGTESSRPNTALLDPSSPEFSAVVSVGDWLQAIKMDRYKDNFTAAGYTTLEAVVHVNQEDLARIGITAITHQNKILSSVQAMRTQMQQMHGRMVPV

MEK6 = molecular target: T3, MEK6 (Homo sapiens, UniProt P52564); test: KINOMEscan; assay type: binding; settings: read-out: % control activity remaining
T3 construct: purchased Eurofins DiscoverX KINOMEscan
T3 sequence (P52564 whole entry): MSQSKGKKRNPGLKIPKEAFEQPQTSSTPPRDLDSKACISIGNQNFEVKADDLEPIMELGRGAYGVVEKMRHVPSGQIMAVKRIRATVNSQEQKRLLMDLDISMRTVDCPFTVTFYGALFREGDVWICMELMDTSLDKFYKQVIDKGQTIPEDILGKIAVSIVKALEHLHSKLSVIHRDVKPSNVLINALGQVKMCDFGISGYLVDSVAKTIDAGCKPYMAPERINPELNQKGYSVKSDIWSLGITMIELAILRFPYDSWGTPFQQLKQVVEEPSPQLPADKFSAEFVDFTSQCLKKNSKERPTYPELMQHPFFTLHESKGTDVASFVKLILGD

MYLK2 = molecular target: T4, MYLK2 (Homo sapiens, UniProt Q9H1R3); test: KINOMEscan; assay type: binding; settings: read-out: % control activity remaining
T4 construct: purchased Eurofins DiscoverX KINOMEscan
T4 sequence (Q9H1R3 whole entry): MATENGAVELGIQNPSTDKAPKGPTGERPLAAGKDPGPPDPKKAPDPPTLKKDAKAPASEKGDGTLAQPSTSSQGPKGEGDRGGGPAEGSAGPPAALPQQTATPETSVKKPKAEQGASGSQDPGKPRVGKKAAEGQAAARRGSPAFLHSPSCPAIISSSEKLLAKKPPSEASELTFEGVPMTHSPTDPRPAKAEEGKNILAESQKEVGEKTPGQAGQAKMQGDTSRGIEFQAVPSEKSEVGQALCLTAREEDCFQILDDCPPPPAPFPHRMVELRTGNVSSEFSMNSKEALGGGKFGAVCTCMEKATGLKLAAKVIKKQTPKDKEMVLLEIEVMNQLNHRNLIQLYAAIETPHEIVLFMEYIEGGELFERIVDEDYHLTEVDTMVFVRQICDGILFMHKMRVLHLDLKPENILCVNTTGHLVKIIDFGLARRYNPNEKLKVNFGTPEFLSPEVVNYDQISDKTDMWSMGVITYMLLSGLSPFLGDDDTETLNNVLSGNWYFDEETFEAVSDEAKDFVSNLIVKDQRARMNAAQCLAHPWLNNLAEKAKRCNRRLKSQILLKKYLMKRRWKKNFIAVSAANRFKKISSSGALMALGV

PLK1 = molecular target: T5, PLK1 (Homo sapiens, UniProt P53350); test: KINOMEscan; assay type: binding; settings: read-out: % control activity remaining
T5 construct: purchased Eurofins DiscoverX KINOMEscan
T5 sequence (P53350 whole entry): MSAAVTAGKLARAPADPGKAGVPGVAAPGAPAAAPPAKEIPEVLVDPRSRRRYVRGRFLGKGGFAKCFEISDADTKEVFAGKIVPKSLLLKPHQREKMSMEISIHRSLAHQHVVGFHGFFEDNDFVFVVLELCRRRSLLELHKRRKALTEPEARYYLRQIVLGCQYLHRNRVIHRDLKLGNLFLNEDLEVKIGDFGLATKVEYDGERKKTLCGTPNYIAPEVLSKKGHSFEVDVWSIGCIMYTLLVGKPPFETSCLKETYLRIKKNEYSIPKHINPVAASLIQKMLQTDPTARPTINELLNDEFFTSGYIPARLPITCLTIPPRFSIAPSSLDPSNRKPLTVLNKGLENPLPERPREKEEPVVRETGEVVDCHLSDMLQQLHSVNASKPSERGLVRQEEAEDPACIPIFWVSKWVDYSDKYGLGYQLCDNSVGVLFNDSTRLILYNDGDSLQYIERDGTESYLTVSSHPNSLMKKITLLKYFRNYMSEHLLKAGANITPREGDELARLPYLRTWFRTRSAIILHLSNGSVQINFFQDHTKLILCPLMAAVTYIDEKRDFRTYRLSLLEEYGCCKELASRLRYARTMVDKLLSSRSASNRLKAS

TAK1 = molecular target: T6, TAK1 (Homo sapiens, UniProt O43318); test: KINOMEscan; assay type: binding; settings: read-out: % control activity remaining
T6 construct: purchased Eurofins DiscoverX KINOMEscan
T6 sequence (O43318 1-606): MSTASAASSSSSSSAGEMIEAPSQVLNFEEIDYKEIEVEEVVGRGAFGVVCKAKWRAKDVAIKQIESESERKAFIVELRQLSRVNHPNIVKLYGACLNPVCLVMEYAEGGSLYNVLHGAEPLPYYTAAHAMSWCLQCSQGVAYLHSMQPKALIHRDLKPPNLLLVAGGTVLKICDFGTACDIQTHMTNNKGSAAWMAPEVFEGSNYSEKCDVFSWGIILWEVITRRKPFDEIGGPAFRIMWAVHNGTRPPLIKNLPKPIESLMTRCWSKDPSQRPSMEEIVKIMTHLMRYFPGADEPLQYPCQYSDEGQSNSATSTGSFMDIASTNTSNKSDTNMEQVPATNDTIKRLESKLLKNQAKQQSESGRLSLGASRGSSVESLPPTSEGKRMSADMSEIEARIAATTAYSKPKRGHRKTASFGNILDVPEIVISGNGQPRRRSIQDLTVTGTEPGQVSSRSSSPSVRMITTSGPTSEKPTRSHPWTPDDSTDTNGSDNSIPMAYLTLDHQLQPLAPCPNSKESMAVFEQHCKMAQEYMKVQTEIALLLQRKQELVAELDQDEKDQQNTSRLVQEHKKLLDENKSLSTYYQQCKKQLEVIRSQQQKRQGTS

[1] = molecular target: T7, TYK2(JH1domain-catalytic) (Homo sapiens, UniProt P29597); test: KINOMEscan; assay type: binding; settings: read-out: % control activity remaining
T7 construct: TYK2(JH1domain-catalytic); purchased Eurofins DiscoverX KINOMEscan
T7 sequence (P29597 871-1187 limits assumed): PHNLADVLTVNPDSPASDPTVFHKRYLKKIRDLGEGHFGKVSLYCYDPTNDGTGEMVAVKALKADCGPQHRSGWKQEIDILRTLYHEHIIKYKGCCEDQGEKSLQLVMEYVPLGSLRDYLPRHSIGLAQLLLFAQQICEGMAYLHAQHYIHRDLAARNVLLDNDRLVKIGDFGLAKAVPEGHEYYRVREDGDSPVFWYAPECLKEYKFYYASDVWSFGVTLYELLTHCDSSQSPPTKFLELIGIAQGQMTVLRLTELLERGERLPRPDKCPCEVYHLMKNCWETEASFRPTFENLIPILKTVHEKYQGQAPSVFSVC

in vitro = settings: human
[2] = test system: IRE1α-dependent splicing of XBP1u-luciferase mRNA reporter in HEK293 cells; test: XBP1 luciferase fusion mRNA splicing reporter in HEK293 cells; assay type: cell-based, human; settings: Homo sapiens, HEK293, read-out: tunicamycin- and thapsigargin-induced splicing of XBP1 luciferase fusion mRNA IC50
IRE1α = IRE1α (Homo sapiens, UniProt O75460); test: biochemical; assay type: binding
IRE1β = IRE1β (Homo sapiens, UniProt Q76MJ5); test: biochemical; assay type: binding
Chain of IRE1β (Q76MJ5 35-926): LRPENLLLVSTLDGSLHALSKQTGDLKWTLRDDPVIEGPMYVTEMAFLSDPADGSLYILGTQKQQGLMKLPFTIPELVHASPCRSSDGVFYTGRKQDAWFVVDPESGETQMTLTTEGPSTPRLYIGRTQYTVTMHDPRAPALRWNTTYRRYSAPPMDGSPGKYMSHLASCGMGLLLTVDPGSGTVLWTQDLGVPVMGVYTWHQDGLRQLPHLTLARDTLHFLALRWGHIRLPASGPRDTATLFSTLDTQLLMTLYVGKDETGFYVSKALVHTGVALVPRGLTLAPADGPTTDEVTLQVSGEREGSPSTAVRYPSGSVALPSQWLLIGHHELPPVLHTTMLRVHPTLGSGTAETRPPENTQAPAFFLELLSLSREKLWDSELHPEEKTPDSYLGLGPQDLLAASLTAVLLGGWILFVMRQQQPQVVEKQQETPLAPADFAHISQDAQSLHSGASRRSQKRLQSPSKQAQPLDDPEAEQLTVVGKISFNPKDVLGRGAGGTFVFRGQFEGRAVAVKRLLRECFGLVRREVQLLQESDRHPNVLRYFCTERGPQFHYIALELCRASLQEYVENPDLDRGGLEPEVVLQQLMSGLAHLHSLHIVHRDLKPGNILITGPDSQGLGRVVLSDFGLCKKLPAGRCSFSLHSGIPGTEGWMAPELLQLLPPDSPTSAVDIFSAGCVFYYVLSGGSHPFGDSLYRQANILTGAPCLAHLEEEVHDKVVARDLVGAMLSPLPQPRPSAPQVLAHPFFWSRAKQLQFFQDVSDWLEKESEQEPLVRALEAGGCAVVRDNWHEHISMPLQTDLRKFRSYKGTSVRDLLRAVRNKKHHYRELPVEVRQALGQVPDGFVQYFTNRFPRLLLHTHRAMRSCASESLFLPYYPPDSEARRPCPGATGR

[3] = test system: GFP-IRE1α oligomerization in HEK293 cells; test: GFP-IRE1α foci (oligomerization) assay in HEK293 cells; assay type: cell-based, human; settings: absence of tunicamycin
CAMK1B = molecular target: T8, CAMK1B (Homo sapiens, UniProt Q6P2M8); test: KINOMEscan; assay type: binding; settings: read-out: % control activity remaining
T8 construct: purchased Eurofins DiscoverX KINOMEscan

CDK4 = molecular target: T9, CDK4 (Homo sapiens, UniProt P11802); test: KINOMEscan; assay type: binding; settings: read-out: % control activity remaining
T9 construct: purchased Eurofins DiscoverX KINOMEscan

FLT3(D835V) = molecular target: T10, FLT3(D835V) (Homo sapiens, UniProt P36888, D835V); test: KINOMEscan; assay type: binding; settings: read-out: % control activity remaining
T10 construct: purchased Eurofins DiscoverX KINOMEscan

FLT3(ITD,D835V) = test: KINOMEscan; assay type: binding, human; settings: 1000 nM
FLT3(ITD,D835Y) = test: KINOMEscan; assay type: binding, human; settings: 1000 nM
GRK2 = molecular target: T11, GRK2 (Homo sapiens, UniProt P25098); test: KINOMEscan; assay type: binding; settings: read-out: % control activity remaining
T11 construct: purchased Eurofins DiscoverX KINOMEscan

GRK3 = molecular target: T12, GRK3 (Homo sapiens, UniProt P35626); test: KINOMEscan; assay type: binding; settings: read-out: % control activity remaining
T12 construct: purchased Eurofins DiscoverX KINOMEscan
T12 sequence (P35626 whole entry): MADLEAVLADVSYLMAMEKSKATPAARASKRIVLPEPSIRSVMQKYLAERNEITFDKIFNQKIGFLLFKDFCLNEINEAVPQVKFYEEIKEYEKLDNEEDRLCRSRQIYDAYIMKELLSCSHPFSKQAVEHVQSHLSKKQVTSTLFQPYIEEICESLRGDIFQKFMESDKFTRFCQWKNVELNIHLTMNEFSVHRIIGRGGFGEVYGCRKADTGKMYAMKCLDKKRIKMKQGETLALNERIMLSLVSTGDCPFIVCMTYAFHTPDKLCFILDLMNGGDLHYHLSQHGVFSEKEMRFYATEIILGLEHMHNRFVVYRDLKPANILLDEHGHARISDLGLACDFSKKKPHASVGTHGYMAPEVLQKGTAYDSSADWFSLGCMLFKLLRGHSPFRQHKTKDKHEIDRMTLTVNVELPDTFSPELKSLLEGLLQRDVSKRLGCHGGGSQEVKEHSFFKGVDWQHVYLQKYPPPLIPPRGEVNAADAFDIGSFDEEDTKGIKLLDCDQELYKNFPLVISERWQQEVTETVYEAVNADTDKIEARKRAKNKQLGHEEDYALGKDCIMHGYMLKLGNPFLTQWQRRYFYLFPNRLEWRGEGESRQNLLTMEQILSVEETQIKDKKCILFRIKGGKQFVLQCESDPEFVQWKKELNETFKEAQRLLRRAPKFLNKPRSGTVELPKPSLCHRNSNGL

PKFYVE = molecular target: T13, PKFYVE (Homo sapiens, UniProt Q9Y2I7); test: KINOMEscan; assay type: binding; settings: read-out: % control activity remaining
T13 construct: purchased Eurofins DiscoverX KINOMEscan

TSSK3 = molecular target: T14, TSSK3 (Homo sapiens, UniProt Q96PN8); test: KINOMEscan; assay type: binding; settings: read-out: % control activity remaining
T14 construct: purchased Eurofins DiscoverX KINOMEscan

VRK2 = molecular target: T15, VRK2 (Homo sapiens, UniProt Q86Y07); test: KINOMEscan; assay type: binding; settings: read-out: % control activity remaining
T15 construct: purchased Eurofins DiscoverX KINOMEscan

VPS34 = molecular target: T16, VPS34 (Homo sapiens, UniProt Q8NEB9); test: KINOMEscan; assay type: binding; settings: read-out: % control activity remaining
T16 construct: purchased Eurofins DiscoverX KINOMEscan
T16 sequence (Q8NEB9 whole entry): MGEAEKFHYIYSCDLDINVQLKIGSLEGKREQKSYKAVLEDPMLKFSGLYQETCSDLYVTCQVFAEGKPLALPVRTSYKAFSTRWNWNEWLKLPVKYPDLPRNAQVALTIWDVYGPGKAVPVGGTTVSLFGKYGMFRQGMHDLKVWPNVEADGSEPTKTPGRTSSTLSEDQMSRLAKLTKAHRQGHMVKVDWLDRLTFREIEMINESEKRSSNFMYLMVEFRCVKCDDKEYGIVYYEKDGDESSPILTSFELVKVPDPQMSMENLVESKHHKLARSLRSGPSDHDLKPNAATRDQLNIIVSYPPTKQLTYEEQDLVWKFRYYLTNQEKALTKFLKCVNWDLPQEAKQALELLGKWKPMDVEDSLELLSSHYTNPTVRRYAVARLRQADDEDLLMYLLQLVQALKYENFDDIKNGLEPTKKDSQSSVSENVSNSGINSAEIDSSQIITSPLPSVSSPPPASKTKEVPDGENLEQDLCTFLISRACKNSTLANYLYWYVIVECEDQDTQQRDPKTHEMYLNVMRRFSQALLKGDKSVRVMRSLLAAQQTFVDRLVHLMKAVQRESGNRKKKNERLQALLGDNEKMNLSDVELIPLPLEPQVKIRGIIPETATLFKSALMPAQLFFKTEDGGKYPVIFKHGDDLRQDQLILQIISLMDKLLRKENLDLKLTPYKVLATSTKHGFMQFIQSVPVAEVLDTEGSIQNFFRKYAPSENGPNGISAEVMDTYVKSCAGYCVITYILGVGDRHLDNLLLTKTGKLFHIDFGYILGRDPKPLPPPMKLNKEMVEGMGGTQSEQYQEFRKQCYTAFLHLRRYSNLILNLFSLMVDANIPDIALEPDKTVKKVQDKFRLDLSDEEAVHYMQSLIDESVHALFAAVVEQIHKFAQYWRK

WNK2 = molecular target: T17, WNK2 (Homo sapiens, UniProt Q9Y3S1); test: KINOMEscan; assay type: binding; settings: read-out: % control activity remaining
T17 construct: purchased Eurofins DiscoverX KINOMEscan

WNK4 = molecular target: T18, WNK4 (Homo sapiens, UniProt Q96J92); test: KINOMEscan; assay type: binding; settings: read-out: % control activity remaining
T18 construct: purchased Eurofins DiscoverX KINOMEscan

[4] = Measured lipophilicity Log D7.4; settings: pH 7.4
[5] = Aqueous buffer solubility (KSol)

Row | SMILES | remaining binding at 1 µM (DYRK1A) | remaining binding at 1 µM (EPHA4) | remaining binding at 1 µM (MEK6) | remaining binding at 1 µM (MYLK2) | remaining binding at 1 µM (PLK1) | remaining binding at 1 µM (TAK1) | remaining binding at 1 µM [1] | EC50 (in vitro) | IC50 [2] | IC50 (IRE1β) | selectivity for IRE1α over the IRE1β isoform (IRE1β) | stimulation of GFP-IRE1α foci formation by compound on its own [3] | remaining binding at 1 µM (CAMK1B) | remaining binding at 1 µM (CDK4) | remaining binding at 1 µM (FLT3(D835V)) | % control activity remaining (FLT3(ITD,D835V)) | % control activity remaining (FLT3(ITD,D835Y)) | remaining binding at 1 µM (GRK2) | remaining binding at 1 µM (GRK3) | remaining binding at 1 µM (PKFYVE) | further results
1 | Clc1cc(NCC2CC2)c2ncc(-c3ccc4[nH]ncc4c3)n2n1 [compound 2, 6-Chloro-N-(cyclopropylmethyl)-3-(1H-indazol-5-yl)imidazo[1,2-b]pyridazin-8-amine] | 5.1% | 84% | 98% | 82% | 97% | 91% | 87% | > 49000 nM | – | – | – | – | – | – | – | – | – | – | – | – | –
2 | O=C(CN1CCOCC1)N[C@H]1CC[C@H](Nc2cc(Cl)nn3c(-c4ccc5[nH]ncc5c4)cnc23)CC1 [compound 26] | 0.35% | 99% | 93% | 52% | 90% | 47% | 100% | > 49000 nM | 680 to 1630 nM | 345 nM | 9 fold | No stimulation | 75% | 100% | 0% | 0.7% | 25% | 84% | 74% | 87% | IC50 (IRE1α): 39 nM; remaining binding at 1 µM (TSSK3): 100%; remaining binding at 1 µM (VRK2): 98%; remaining binding at 1 µM (VPS34): 94%; remaining binding at 1 µM (WNK2): 34%; remaining binding at 1 µM (WNK4): 100%; logD [4]: 1.8; solubility [5]: 80 µM (≈ 40.7 µg/mL)
3 | CN1CCC(CNc2cc(Cl)nn3c(-c4cc5nc(Nc6ccccc6)[nH]c5cc4F)cnc23)CC1 [compound 31, 6-Chloro-3-(6-fluoro-2-(phenylamino)-1H-benzo[d]imidazol-5-yl)-N-((1-methylpiperidin-4-yl)methyl)imidazo[1,2-b]pyridazin-8-amine] | 71% | 100% | – | 89% | 96% | 65% | 74% | – | 680 to 1630 nM | 7680 nM | 100 fold | No stimulation | 100% | 100% | 69% | 76% | 77% | 100% | 91% | 26% | remaining binding at 1 µM (TSSK3): 91%; remaining binding at 1 µM (VRK2): 82%; remaining binding at 1 µM (VPS34): 97%; remaining binding at 1 µM (WNK2): 100%; remaining binding at 1 µM (WNK4): 83%; logD [4]: 3.7; solubility [5]: 38 µM (≈ 19.2 µg/mL)
